The subject of test [1] is HdhQ111 mouse striatal cells. In words: Mitochondrial length and mitophagosomes by electron microscopy. It is filed as cell-based. To be noted: 3 uM/day for 3 days, EM. The source says:
The HdhQ7 and HdhQ111 cells were fixed by 2.5% glutaraldehyde in 0.1 M cacodylate buffer. Small pieces of the striata tissue of mice were fixed by immersion in triple aldehyde-DMSO. After rinsing in 0.1 M phosphate buffer (pH 7.3), the samples were post-fixed in ferrocyanide-reduced osmium tetroxide.
The above fixed samples were rinsed by water followed by overnight soaking in acidified uranyl acetate. After rinsing in distilled water, the blocks were dehydrated in ascending concentrations of ethanol, passed through propylene oxide, and embedded in Poly/Bed resin. Thin sections were sequentially stained with acidified uranyl acetate followed by a modification of Sato's triple lead stain. These sections were examined in a FEI Tecnai Spirit (T12) transmission electron microscope with a Gatan US4000 4kx4k CCD at the Case Western Reserve University EM core facility. Mitochondria from 15 random areas in each group were imaged by an experimenter blind to the experimental groups. The length of mitochondria was measured by NIH Image J software. The number of mitophagosomes per 100 μm^2 was counted. The number of gold particles labelling VCP on mitochondria were quantitated.

Test [2] has as its system HdhQ111 mouse striatal cells. In words: HMGB1 release after serum withdrawal. It is filed as cell-based. To be noted: 24 h serum withdrawal, 3 μM. As to the method:
HdhQ7 and Q111 mouse striatal cells were treated with the HV-3 peptide or the control peptide TAT (3 μM, each) in an FBS-free DMEM medium or in DMEM containing 10% serum for 24 h. Medium from the cultured cells was harvested. Proteins from the medium were purified using Amicon Ultra 0.5 ml centrifugal filters (Millipore). HMGB1 release into the medium was then analysed by Western blotting with anti-HMGB1 antibody. In parallel, cell death was determined by measuring LDH release into the culture medium, using LDH-Cytotoxicity Assay Kit II (Roche, USA) by following the manufacturer's instruction.

In test [3] the test system is wild-type mouse striatal cells. In words: GFP-LC3B association with mitochondria in cells expressing Flag-VCP. Format: cell-based. To be noted: wt striatal cells, 36 h. As to the method:
Figure 5 Treatment of HV-3 reduces excessive mitophagy in HD cell cultures and HD mouse brains. (a) HdhQ7 and HdhQ111 cells were treated with control siRNA (con) or VCP siRNA (siVCP) for 48 h. Mitochondria were isolated and LC3 mitochondrial levels were determined by WB. Representative blots are from three independent experiments. The quantitation of LC3 II levels on mitochondria is provided on the right. VADC was used as a loading control. (b) Flag-VCP and GFP-LC3B were co-transfected into wild-type striatal cells. Mitochondria were isolated after 36 h of transfection. The GFP-LC3B levels on mitochondria were examined by WB. VDAC was used as a loading control. Representative blots are from three independent experiments. Histogram: quantitation of GFP-LC3B mitochondrial protein level. HdhQ7 and HdhQ111 cells were treated with control peptide TAT or peptide HV-3 (3 uM/day for 3 days). (c) HdhQ111 cells were transfected with GFP-LC3B for 24 h. The number of GFP-LC3B puncta was quantitated and shown in the histogram. […] (d) Enzyme activity of lysosomal Cathepsin B was measured using a Cathepsin B assay kit. […] (e) Mitochondrial mass was measured by the fluorescent density of Mitotracker green. […] Histogram: the number of mitophagosomes per 100 μm^2 was counted and quantitated. Fifteen random areas in the striatum of each animal were analyzed. […]
Protein concentrations were determined by Bradford assay. […]

A further test relates to YAC128 mice. The experiment in a line: General motility, YAC128 (24 h locomotor activity). Format: in vivo, mouse. To be noted: YAC128, 3 mg/kg/day from 3 months; from 6 to 12 months of age, n=15–20. The source says: YAC128 (FVB-Tg(YAC128)53Hay/J, JAX stock number: 004938) breeders (FVB/N genetic background) were purchased from Jackson Laboratories. The YAC128 mice contain a full-length human huntingtin gene modified with a 128 CAG repeat expansion in exon 1. The mice were mated, bred and genotyped in the animal facility of Case Western Reserve University. Male mice at the ages of 2, 3, 6, 9 and 12 months were used in the study.
YAC128 mice (Tg) and their age-matched wt littermates were implanted with an osmotic pump containing TAT control peptide or HV-3 peptide (3 mg/kg/day, each) starting from the age of 3 months. The pump was replaced once every month. By the age of 12 months, the treatments were terminated and the mouse samples were harvested for analysis.
Gross locomotor activity was assessed in R6/2 mice and age-matched wt littermates at the ages of 13 weeks and in YAC128 mice and age-matched wt littermates at the ages of 2, 3, 6, 9, and 12 months. In an activity chamber (Omnitech Electronics, Inc), mice were placed in the center of the chamber and allowed to explore while being tracked by an automated beam system (Vertax, Omnitech Electronics Inc). Distance moved, horizontal, vertical, and rearing activities were recorded. Because R6/2 mice were sensitive to changes in environment and handling, we only conducted one-hour locomotor activity analysis for R6/2 mice and wt littermates. […]

The values below come from article PMC5007466, “VCP recruitment to mitochondria causes mitophagy impairment and neurodegeneration in models of Huntington's disease” (Nature Communications, 2016).

Entries after “also recorded” stand apart in the source; their conditions may differ.

Regarding `CSCC[C@H](NC(=O)[C@@H](NC(=O)[C@H](CC(C)C)NC(=O)[C@@H](NC(=O)[C@H](Cc1c[nH]cn1)NC(=O)CCCCCNC(=O)[C@H](CCCNC(=N)N)NC(=O)[C@H](CCCNC(=N)N)NC(=O)[C@H](CCCNC(=N)N)NC(=O)[C@H](CCC(N)=O)NC(=O)[C@H](CCCNC(=N)N)NC(=O)[C@H](CCCNC(=N)N)NC(=O)[C@H](CCCCN)NC(=O)[C@H](CCCCN)NC(=O)[C@H](CCCNC(=N)N)NC(=O)CNC(=O)[C@@H](N)Cc1ccc(O)cc1)C(C)C)C(C)C)C(=O)N[C@@H](CS)C(=O)N[C@@H](C)C(=O)N[C@H](C(N)=O)[C@@H](C)O` [HV-3], in test [1], the mitochondrial length entry is “increased mitochondrial length” and the number of mitophagosomes result is “reduced this accumulation; also recorded: greatly reduced the accumulation of mitophagosomes”. In addition, in test [2], the HMGB1 release result is on record as “reduced the release of high mobility group box 1 (HMGB1)”. The “GFP-LC3B association with mitochondria” value in test [3] was “could be inhibited by treatment with HV-3”. In addition, the general movement activity entry in the test with YAC128 mice is reported as “improved general movement activity”.
